The values that follow come from ChEMBL document CHEMBL1240323, “3D QSAR studies on a series of potent and high selective inhibitors for three kinases of RTK family” (J Mol Graph Model, 2007).

For the experiment, the target named is Vascular endothelial growth factor receptor 2 (Homo sapiens, UniProt P35968). The experiment can be described thus: Inhibition of KDR.
Sequence of Vascular endothelial growth factor receptor 2 (P35968 whole entry): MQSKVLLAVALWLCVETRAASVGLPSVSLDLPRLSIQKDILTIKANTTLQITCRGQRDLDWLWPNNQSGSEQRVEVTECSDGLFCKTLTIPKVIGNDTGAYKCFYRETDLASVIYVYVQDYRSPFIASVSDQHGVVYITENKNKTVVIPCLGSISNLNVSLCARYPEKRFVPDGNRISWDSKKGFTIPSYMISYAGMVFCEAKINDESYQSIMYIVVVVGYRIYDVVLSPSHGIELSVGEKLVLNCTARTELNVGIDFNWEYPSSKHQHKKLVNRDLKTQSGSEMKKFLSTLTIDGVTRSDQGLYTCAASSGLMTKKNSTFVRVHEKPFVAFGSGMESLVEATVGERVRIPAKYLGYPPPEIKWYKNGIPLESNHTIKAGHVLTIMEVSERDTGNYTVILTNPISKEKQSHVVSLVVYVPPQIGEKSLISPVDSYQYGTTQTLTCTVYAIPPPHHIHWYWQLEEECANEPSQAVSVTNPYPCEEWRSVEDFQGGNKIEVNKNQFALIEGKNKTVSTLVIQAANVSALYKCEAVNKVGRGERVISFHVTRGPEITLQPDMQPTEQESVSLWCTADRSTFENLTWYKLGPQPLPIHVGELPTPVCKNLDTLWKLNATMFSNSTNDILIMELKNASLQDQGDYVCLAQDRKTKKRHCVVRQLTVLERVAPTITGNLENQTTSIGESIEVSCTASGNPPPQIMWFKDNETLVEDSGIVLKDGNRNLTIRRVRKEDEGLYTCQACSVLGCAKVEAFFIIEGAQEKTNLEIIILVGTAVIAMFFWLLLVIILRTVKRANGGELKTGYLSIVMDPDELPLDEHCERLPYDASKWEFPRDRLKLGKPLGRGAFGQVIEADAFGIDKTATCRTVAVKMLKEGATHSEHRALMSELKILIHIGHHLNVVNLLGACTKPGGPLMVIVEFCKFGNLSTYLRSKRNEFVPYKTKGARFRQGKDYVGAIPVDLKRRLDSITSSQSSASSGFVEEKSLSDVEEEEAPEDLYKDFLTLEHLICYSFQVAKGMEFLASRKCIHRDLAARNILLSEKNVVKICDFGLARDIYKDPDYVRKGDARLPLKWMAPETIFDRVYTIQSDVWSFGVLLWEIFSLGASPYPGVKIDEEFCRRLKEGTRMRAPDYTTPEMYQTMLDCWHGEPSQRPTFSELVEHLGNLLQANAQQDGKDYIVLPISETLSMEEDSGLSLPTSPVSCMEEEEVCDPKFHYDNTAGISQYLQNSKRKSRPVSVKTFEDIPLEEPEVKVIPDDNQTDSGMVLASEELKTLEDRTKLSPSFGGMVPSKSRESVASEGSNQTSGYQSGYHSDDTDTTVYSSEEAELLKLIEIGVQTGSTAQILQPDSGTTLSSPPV

With `Cc1sc2ncnc(N)c2c1-c1ccc(NC(=O)Nc2cc(C(F)(F)F)ccc2F)cc1`, 45.7 nM corresponded to half-maximal inhibition (IC50).
